Data from patent publication US20120258956A1, “USE OF A SPIROLIDE, ANALOGUES AND DERIVATIVES FOR TREATING AND/OR PREVENTING PATHOLOGICAL CONDITIONS LINKED TO THE TAU AND BETA-AMYLOID PROTEINS” (priority 2009, published 2012).

Legend:
[1] = administered intraperitoneally, rat and mouse; cited from earlier work
total tau = test: Western blot of total basal tau (Tau46 antibody) in control non-transgenic cortical neurones; assay type: cell-based, mouse; details: 100 nM
Description: The effect of spirolide on basal phosphorylation of tau was determined by Western blot techniques. An in vitro cortical neuronal model obtained from non-transgenic mice was used. Neuronal culture and sample processing was carried out in the same way as described in the previous example. The data obtained were corrected for the β-actin content of the samples.

[2] = oral; cited from earlier work
cortical neurones = test: Alamar Blue cellular viability assay in primary cortical cultures; assay type: cell-based, mouse; details: 72 hours in culture
Description: (§1) In order to carry out the experiments of the present invention, either an in vitro cortical neuronal model with simultaneous overexpression of tau and β-amyloid, obtained from a model of Alzheimer's disease in triple-transgenic (3×Tg-AD or 3×Tg) mice, obtainable via the detailed procedure in the international patent application WO2003/053136 and provided by the title holders of this application, or an in vitro cortical neuronal model obtained from non-transgenic (No-Tg) mice.
Primary cortical cultures in the embodiment of the invention were obtained from 3×Tg-AD mouse embryos of 15-17 days gestation and the wild cultures were obtained from non 3×Tg control mouse embryos of the same strain. The effect of the compounds used in this invention on cellular viability was estimated by a fluorescence assay using the Alamar Blue viability indicator. To carry out the assay, primary cortical cultures seeded on 96-well plates were used. The neuronal cells were incubated in the culture medium with the spirolide of the present invention at different concentrations dissolved in dimethyl sulfoxide and the effect on neuronal viability was determined at different treatment times in vitro. The maximum concentration of 13-desmethyl spirolide evaluated was 100 nM and the concentration of Alamar blue was 10%. The volume of the reaction used was 200 μl. Fluorescence was measured at wavelengths of 530 nm (excitation) and 590 nm (emission).

[3] = test system: tau phosphorylated on Thr212 and Ser214; test: Western blot of phosphorylated tau (AT100 antibody) in 3xTg-AD cortical neuronal cultures; assay type: cell-based, mouse; details: 3xTg cultures, FIG. 3B, p<0.005, n=3
Description: as §1
(§2) For the determination of the effect of the spirolide compound of the present invention on the expression of tau and beta amyloid, the Western blot techniques were used. […] For Western blot studies, protein expression was evaluated using 6E10 anti-β-amyloid primary antibodies at a dilution of 1:500, AT8 anti-Tau (tau phosphorylated on Ser202, dilution 1:1000) and AT100 anti-tau (tau phosphorylated on Thr 212 and Ser214, dilution 1:1000).
(§3) For Western blot assays, neuronal cultures treated with the spirolide of the present invention were washed with cold phosphate buffer and lysed in 50 mM Tris-HCl buffer (pH 7.4) containing 150 mM NaCl, 1 mM EDTA, 1% Triton X-100, 2 mM DTT, 2.5 mM PMSF, 40 mg/ml aprotinin, 4 mg/ml leupeptin, 5 mM NaF, 1 mM Na3VO4, 1 mg/ml pepstatin A and 1 mg/ml benzamidine. Total protein concentration was determined by Bradford's method using bovine albumin as standard. […]

β-amyloid = test: Western blot of intracellular β-amyloid (6E10 antibody) in 3xTg-AD cortical neuronal cultures; assay type: cell-based, mouse
Description: as §1, §2, §3

[4] = test system: tau phosphorylated on Ser202; test: Western blot of phosphorylated tau (AT8 antibody) in 3xTg-AD cortical neuronal cultures; assay type: cell-based, mouse; details: for levels of tau phosphorylated on Serine 202: day 3 to day 10 in vitro, untreated 3xTg 129.1
Description: as §1
The administration of 50 nM spirolide is equivalent to approximately 37 μg spirolide per kg of body weight. Intraperitoneal administration of an amount higher than 37 μg per kg body weight to a mouse reduced the levels of these proteins but produced toxic effects in the animal (Santokh et al., 2003. NeuroToxicology, 24: 593-604), however, the oral toxicity of spirolides is 1 mg per kg body weight.
For the determination of the effect of the spirolide compound of the present invention on the expression of tau and beta amyloid, the Western blot techniques were used. The primary neuronal cultures were incubated with the spirolide compound of the present invention added to the culture medium for a specific time. For the concentration of 50 nM, the treatment times were between 7 and 10 days in vitro and for other concentrations (0.1 to 25 nM) between 3 and 10 days in vitro. The cells were then processed following the usual protocols for Western blot. For Western blot studies, protein expression was evaluated using 6E10 anti-β-amyloid primary antibodies at a dilution of 1:500, AT8 anti-Tau (tau phosphorylated on Ser202, dilution 1:1000) and AT100 anti-tau (tau phosphorylated on Thr 212 and Ser214, dilution 1:1000).
For Western blot assays, neuronal cultures treated with the spirolide of the present invention were washed with cold phosphate buffer and lysed in 50 mM Tris-HCl buffer (pH 7.4) containing 150 mM NaCl, 1 mM EDTA, 1% Triton X-100, 2 mM DTT, 2.5 mM PMSF, 40 mg/ml aprotinin, 4 mg/ml leupeptin, 5 mM NaF, 1 mM Na3VO4, 1 mg/ml pepstatin A and 1 mg/ml benzamidine. Total protein concentration was determined by Bradford's method using bovine albumin as standard. Aliquots of cellular lysates containing 20 μg total protein were loaded in loading buffer (50 mM Tris-HCl, 100 mM dithiothreitol, 2% SDS, 20% glycerol, 0.05% bromophenol blue, pH 6.8), the proteins were separated by electrophoresis and transferred to PVDF membranes. The membranes were incubated with the primary antibodies, washed and then incubated with a secondary antibody bound to HRP. Immunoreactivity was detected by chemiluminescence. The same membranes were reincubated with an anti-β-actin primary antibody to carry out data correction for the sample protein content.

For 13-desmethyl spirolide, which “concentration causing toxic effects” value [1] is on record?
The value was 37-40 μg/kg body weight.

And the “total basal tau levels in control neurones” value (total tau)?
Its value is 139.9 ± 27.3 % control.

And the “total basal tau levels in control neurones” value (total tau; listed as spirolide)?
Its value is “did not affect”.

And the “toxicity when administered orally” value [2]?
Its value is “not toxic”.

And the “Viability of cortical neurones” value (cortical neurones; 2.5 nM)?
The value was 104.3 ± 1.2 % control.

And the “Viability of cortical neurones” value (cortical neurones; 5 nM)?
Its value is 104 ± 1.3 % control.

What about the “Viability of cortical neurones” value (cortical neurones; 10 nM) of the same substance?
Its value is 104.3 ± 1.4 % control.

And the “Viability of cortical neurones” value (cortical neurones; 25 nM)?
The value was 104.3 ± 0.7 % control.

What about the “Viability of cortical neurones” value (cortical neurones; 50 nM) of the same substance?
Its value is 103.4 ± 0.5 % control.

What about the “Viability of cortical neurones” value (cortical neurones; 100 nM) of the same substance?
The value was 102.1 ± 1.5 % control.

And the “tau phosphorylation (AT100, Thr212 and Ser214; Western blot quantification)” value [3]?
Its value is “significant reduction”.

What about the β-amyloid protein (β-amyloid; 0.5 nM) of the same substance?
Its β-amyloid protein is “reducing β-amyloid protein”.

What about the “overexpression of β-amyloid (Western blot quantification, 6E10)” value (β-amyloid; 3xTg cultures, FIG. 1B, p<0.005 vs untreated transgenic cultures, n=3) of the same substance?
The value was “significant reduction”.

And the “hyperphosphorylation of the tau protein” value ([4]; 0.017 μg per kg body weight (approx. 0.023 nM))?
The value was “continued to be reduced”.

What about the “levels of tau phosphorylated on Serine 202” value (“levels of tau phosphorylated” below) ([4]; 3xTg cultures, 0.1 nM) of the same substance?
Its value is 129.8 ± 1.7 % control.

What about the “levels of tau phosphorylated” value ([4]; 3xTg cultures, 0.5 nM) of the same substance?
Its value is 61.7 ± 12.4 % control.

What about the “levels of tau phosphorylated” value ([4]; 3xTg cultures, 10 nM) of the same substance?
The value was 70.3 ± 4.7 % control.

And the “levels of tau phosphorylated” value ([4]; 3xTg cultures, 25 nM)?
The value was 89.1 ± 2.2 % control.

What about the “tau phosphorylation (AT8, Ser202; Western blot quantification)” value ([4]; 3xTg cultures, FIG. 2B, p<0.05, n=3) of the same substance?
Its value is “significant reduction”.
